From patent publication US20220119354A1, “DIAMINO-SUBSTITUTED PYRIDINES AND PYRIMIDINES AS HERBICIDES” (FMC Corporation, priority 2019, published 2022)

Key:
Format in all cases: in vivo
corn (Zea mays) = experiment: Test A postemergence, corn; conditions: 0 to 100 scale, 0 no effect, 100 complete control
How it was run: (§1)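 Visual injury scored against untreated controls about 10 d after treatment, scale 0 = no effect to 100 = complete control. Compounds, formulated with surfactant in a non-phytotoxic solvent, went on as directed soil spray preemergence or onto 2–10 cm, one- to two-leaf plants postemergence; loam–sand soil, greenhouse.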

[1] = tested on: barnyardgrass (Echinochloa crus-galli); experiment: Test B flooded paddy test, barnyardgrass; conditions: Flood, 250 g ai/ha, applied to paddy water, 2-leaf stage, visual evaluation after 13 to 15 d
How it was run: (§2)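 Visual injury scores run from 0 (no effect) to 100 (complete control), assigned by comparison with controls 13 to 15 d after treatment. Treatment went into floodwater standing 3 cm over the soil of pots holding 2-leaf plants.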

[2] = tested on: galium (catchweed bedstraw, Galium aparine); experiment: Test A postemergence, galium; conditions: 0 to 100 scale, 0 no effect, 100 complete control
How it was run: as §1

[3] = tested on: ryegrass, Italian (Lolium multiflorum); experiment: Test A postemergence, Italian ryegrass; conditions: 0 to 100 scale, 0 no effect, 100 complete control
How it was run: as §1

[4] = tested on: blackgrass (Alopecurus myosuroides); experiment: Test A postemergence, blackgrass; conditions: 0 to 100 scale, 0 no effect, 100 complete control
How it was run: as §1

[5] = tested on: sedge, umbrella (small-flower umbrella sedge, Cyperus difformis); experiment: Test B flooded paddy test, umbrella sedge; conditions: Flood, 250 g ai/ha, applied to paddy water, 2-leaf stage, visual evaluation after 13 to 15 d
How it was run: as §2

[6] = tested on: ragweed (common ragweed, Ambrosia elatior); experiment: Test A postemergence, ragweed; conditions: 0 to 100 scale, 0 no effect, 100 complete control
How it was run: as §1

[7] = tested on: foxtail, giant (Setaria faberii); experiment: Test A postemergence, giant foxtail; conditions: 0 to 100 scale, 0 no effect, 100 complete control
How it was run: as §1

[8] = tested on: ducksalad (Heteranthera limosa); experiment: Test B flooded paddy test, ducksalad; conditions: Flood, 250 g ai/ha, applied to paddy water, 2-leaf stage, visual evaluation after 13 to 15 d
How it was run: as §2

[9] = tested on: barnyardgrass (Echinochloa crus-galli); experiment: Test A preemergence, barnyardgrass; conditions: 0 to 100 scale, 0 is no effect, 100 is complete control
How it was run: as §1

[10] = tested on: foxtail, giant (Setaria faberii); experiment: Test A preemergence, giant foxtail; conditions: 0 to 100 scale, 0 is no effect, 100 is complete control
How it was run: as §1

[11] = tested on: barnyardgrass (Echinochloa crus-galli); experiment: Test A postemergence, barnyardgrass; conditions: 0 to 100 scale, 0 no effect, 100 complete control
How it was run: as §1

[12] = tested on: pigweed (Amaranthus retroflexus); experiment: Test A postemergence, pigweed; conditions: 0 to 100 scale, 0 no effect, 100 complete control
How it was run: as §1

[13] = tested on: ragweed (common ragweed, Ambrosia elatior); experiment: Test A preemergence, ragweed; conditions: 0 to 100 scale, 0 is no effect, 100 is complete control
How it was run: as §1

kochia (Kochia scoparia) [14] = experiment: Test A preemergence, kochia; conditions: 0 to 100 scale, 0 is no effect, 100 is complete control
How it was run: as §1

rice (Oryza sativa) = experiment: Test B flooded paddy test, rice; conditions: Flood, 250 g ai/ha, applied to paddy water, 2-leaf stage, visual evaluation after 13 to 15 d
How it was run: as §2

kochia (Kochia scoparia) [15] = experiment: Test A postemergence, kochia; conditions: 0 to 100 scale, 0 no effect, 100 complete control
How it was run: as §1

[16] = tested on: ryegrass, Italian (Lolium multiflorum); experiment: Test A preemergence, Italian ryegrass; conditions: 0 to 100 scale, 0 is no effect, 100 is complete control
How it was run: as §1

[17] = tested on: wheat (Triticum aestivum); experiment: Test A postemergence, wheat; conditions: 0 to 100 scale, 0 no effect, 100 complete control
How it was run: as §1

[18] = tested on: pigweed (Amaranthus retroflexus); experiment: Test A preemergence, pigweed; conditions: 0 to 100 scale, 0 is no effect, 100 is complete control
How it was run: as §1

Compound	Plant response rating, Corn (corn (Zea mays); 125 g ai/ha)	Plant response rating, Corn (corn (Zea mays); 500 g ai/ha)	Plant response rating, Barnyardgrass (0 to 100 scale, 0 is no effect, 100 is complete control) [1]	Plant response rating, Galium ([2]; 125 g ai/ha)	Plant response rating, Galium ([2]; 500 g ai/ha)	Plant response rating, Ryegrass, Italian ([3]; 125 g ai/ha)	Plant response rating, Ryegrass, Italian ([3]; 500 g ai/ha)	Plant response rating, Blackgrass ([4]; 125 g ai/ha)	Plant response rating, Blackgrass ([4]; 500 g ai/ha)	Plant response rating, Sedge, Umbrella (0 to 100 scale, 0 is no effect, 100 is complete control) [5]	Plant response rating, Ragweed ([6]; 125 g ai/ha)	Plant response rating, Ragweed ([6]; 500 g ai/ha)	Plant response rating, Foxtail, Giant ([7]; 125 g ai/ha)	Plant response rating, Foxtail, Giant ([7]; 500 g ai/ha)	Plant response rating, Ducksalad (0 to 100 scale, 0 is no effect, 100 is complete control) [8]	Barnyardgrass plant response rating ([9]; 125 g ai/ha)	Barnyardgrass plant response rating ([9]; 500 g ai/ha)	Foxtail, Giant plant response rating ([10]; 125 g ai/ha)	Foxtail, Giant plant response rating ([10]; 500 g ai/ha)	Plant response rating, Barnyardgrass ([11]; 125 g ai/ha)	further results
CC(Nc1nc(N)c(C(F)(F)F)c(C(F)(F)F)n1)c1cc2ccccc2o1 (racemic) [Compound 58]	0	0	0	0	20	0	0	0	0	0	0	20	0	10	0	0	0	0	0	0	Plant response rating, Barnyardgrass ([11]; 500 g ai/ha): 50; Plant response rating, Pigweed ([12]; 125 g ai/ha): 20; Plant response rating, Pigweed ([12]; 500 g ai/ha): 60; Ragweed plant response rating ([13]; 125 g ai/ha): 0; Ragweed plant response rating ([13]; 500 g ai/ha): 0; Kochia plant response rating (kochia (Kochia scoparia) [14]; 125 g ai/ha): 0; Kochia plant response rating (kochia (Kochia scoparia) [14]; 500 g ai/ha): 0; Plant response rating, Rice (0 to 100 scale, 0 is no effect, 100 is complete control) (rice (Oryza sativa)): 0; Plant response rating, Kochia (kochia (Kochia scoparia) [15]; 125 g ai/ha): 30; Plant response rating, Kochia (kochia (Kochia scoparia) [15]; 500 g ai/ha): 80; Ryegrass, Italian plant response rating ([16]; 125 g ai/ha): 0; Ryegrass, Italian plant response rating ([16]; 500 g ai/ha): 0; Plant response rating, Wheat ([17]; 125 g ai/ha): 0; Plant response rating, Wheat ([17]; 500 g ai/ha): 0; Pigweed plant response rating ([18]; 125 g ai/ha): 0; Pigweed plant response rating ([18]; 500 g ai/ha): 0
CC(Nc1nc(N)c(C(F)(F)F)c(C(F)(F)F)n1)C1Cc2ccccc2C1 (racemic) [Compound 69]	20	0	0	0	0	0	0	0	30	0	0	0	0	0	0	0	0	0	0	0	Plant response rating, Barnyardgrass ([11]; 500 g ai/ha): 0; Plant response rating, Pigweed ([12]; 125 g ai/ha): 20; Plant response rating, Pigweed ([12]; 500 g ai/ha): 80; Ragweed plant response rating ([13]; 125 g ai/ha): 0; Ragweed plant response rating ([13]; 500 g ai/ha): 70; Kochia plant response rating (kochia (Kochia scoparia) [14]; 125 g ai/ha): 0; Kochia plant response rating (kochia (Kochia scoparia) [14]; 500 g ai/ha): 70; Plant response rating, Rice (0 to 100 scale, 0 is no effect, 100 is complete control) (rice (Oryza sativa)): 0; Plant response rating, Kochia (kochia (Kochia scoparia) [15]; 125 g ai/ha): 30; Plant response rating, Kochia (kochia (Kochia scoparia) [15]; 500 g ai/ha): 80; Ryegrass, Italian plant response rating ([16]; 125 g ai/ha): 0; Ryegrass, Italian plant response rating ([16]; 500 g ai/ha): 0; Plant response rating, Wheat ([17]; 125 g ai/ha): 0; Plant response rating, Wheat ([17]; 500 g ai/ha): 0; Pigweed plant response rating ([18]; 125 g ai/ha): 0; Pigweed plant response rating ([18]; 500 g ai/ha): 70
CC(Nc1ncc(C(F)(F)F)c(N)n1)c1cc2ccc(Cl)cc2s1 (racemic) [Compound 70]	0	0	0	0	80	0	0	0	30	0	0	50	0	60	0	0	30	0	50	20	Plant response rating, Barnyardgrass ([11]; 500 g ai/ha): 70; Plant response rating, Pigweed ([12]; 125 g ai/ha): 100; Plant response rating, Pigweed ([12]; 500 g ai/ha): 100; Ragweed plant response rating ([13]; 125 g ai/ha): 20; Ragweed plant response rating ([13]; 500 g ai/ha): 90; Kochia plant response rating (kochia (Kochia scoparia) [14]; 125 g ai/ha): 0; Kochia plant response rating (kochia (Kochia scoparia) [14]; 500 g ai/ha): 40; Plant response rating, Rice (0 to 100 scale, 0 is no effect, 100 is complete control) (rice (Oryza sativa)): 0; Plant response rating, Kochia (kochia (Kochia scoparia) [15]; 125 g ai/ha): 50; Plant response rating, Kochia (kochia (Kochia scoparia) [15]; 500 g ai/ha): 80; Ryegrass, Italian plant response rating ([16]; 125 g ai/ha): 0; Ryegrass, Italian plant response rating ([16]; 500 g ai/ha): 0; Plant response rating, Wheat ([17]; 125 g ai/ha): 0; Plant response rating, Wheat ([17]; 500 g ai/ha): 0; Pigweed plant response rating ([18]; 125 g ai/ha): 30; Pigweed plant response rating ([18]; 500 g ai/ha): 90
